Experimental data: ChEMBL document CHEMBL1132037, “Anabaenopeptins G and H, potent carboxypeptidase A inhibitors from the cyanobacterium Oscillatoria agardhii (NIES-595)” (Bioorg Med Chem Lett, 1999); call rule not given here
In brackets after ≈: the same amount, converted by molar mass. Numbered stars: 1 amine (or outer) side, 2 acyl side, 3 side chain; on linkers, the order of the positions; unused ones are H or OH. Bridge positions count the residues as written; N and C are the ends. Square brackets hold non-standard residues; d marks the D form. Peptide text beside a SMILES is read from it. NMehTyr = CN[C@@H](CCc1ccc(O)cc1)C(=O)O; hTyr = N[C@@H](CCc1ccc(O)cc1)C(=O)O; NMeA = CN[C@@H](C)C(=O)O; CO = O=C([*:1])[*:2]

Columns and labels:
[1] = biological target: Carboxypeptidase A1 (Bos taurus) (UniProt P00730); assay: Ability to inhibit Carboxypeptidase A from bovine pancreas at a concentration of 50 ug/mL; No Activity
[2] = biological target: Carboxypeptidase A1 (Bos taurus) (UniProt P00730); assay: Ability to inhibit Carboxypeptidase A from bovine pancreas

Row | SMILES | IC50 [1] | IC50 [2]
1 | COc1ccc(CC[C@@H]2NC(=O)[C@H](C(C)C)NC(=O)[C@H](NC(=O)N[C@@H](CCCN=C(N)N)C(=O)O)CCCCNC(=O)[C@H](Cc3ccccc3)NC(=O)[C@H](C)N(C)C2=O)cc1 | Not Active | –
2 | CC[C@H](C)[C@@H]1NC(=O)[C@H](NC(=O)NC(Cc2ccc(O)cc2)C(=O)O)CCCCNC(=O)[C@H]([C@@H](C)CC)NC(=O)[C@H](CCc2ccc(O)cc2)N(C)C(=O)[C@H](CCc2ccc(O)cc2)NC1=O (stereo partly specified) | – | 0.0018 µg/mL (≈ 0.00194 µM)
3 | CC(C)[C@@H]1NC(=O)[C@H](NC(=O)N[C@@H](CCCNC(=N)N)C(=O)O)CCCCNC(=O)[C@H](Cc2ccccc2)NC(=O)[C@H](C)N(C)C(=O)[C@H](CCc2ccc(O)cc2)NC1=O [ANABAENOPEPTIN B] ({Arg-CO}-[dK]V[hTyr][NMeA]F; lactam 1-C) | Not Active | –
4 | CC[C@H](C)[C@@H]1NC(=O)[C@H](NC(=O)N[C@@H](CCCNC(=N)N)C(=O)O)CCCCNC(=O)[C@H](Cc2ccccc2)NC(=O)[C@H](C)N(C)C(=O)[C@H](CCc2ccc(O)cc2)NC1=O [ANABAENOPEPTIN F] ({Arg-CO}-[dK]I[hTyr][NMeA]F; lactam 1-C) | Not Active | –
5 | CC[C@H](C)[C@@H]1NC(=O)[C@H](NC(=O)N[C@@H](CCCNC(=N)N)C(=O)O)CCCCNC(=O)[C@H]([C@@H](C)CC)NC(=O)[C@H](CCc2ccc(O)cc2)N(C)C(=O)[C@H](CCc2ccc(O)cc2)NC1=O [ANABAENOPEPTIN H] ({Arg-CO}-[dK]I[hTyr][NMehTyr]I; lactam 1-C) | – | 3.4 µg/mL (≈ 3.68 µM)
6 | CC[C@H](C)[C@H](NC(=O)N[C@@H]1CCCCNC(=O)[C@H]([C@@H](C)CC)NC(=O)[C@H](CCc2ccc(O)cc2)N(C)C(=O)[C@H](CCc2ccc(O)cc2)NC(=O)[C@H](C(C)C)NC1=O)C(=O)O [ANABAENOPEPTIN T] | – | 2 µg/mL (≈ 2.31 µM)
